PMC8510097 (Molecules, 2021)
Like-named read-outs stand apart in the source and are kept apart here.

Key:
SARS-CoV-2 3CLpro [1] = biological target: T1, SARS-CoV-2 3CLpro (Severe acute respiratory syndrome coronavirus 2, UniProt P0DTD1); assay: SARS-CoV-2 3CLpro inhibition assay, continuous fluorescence with FRET substrate UIVT3; format: biochemical
[2] = test system: SARS-CoV-2 strain JPN/TY/WK-521; assay: Antiviral assay, quantitative VeroE6 cell-based assay with RNA-qPCR
SARS-CoV-2 = assay: Antiviral CPE protection assay in VeroE6 cells in the presence of P-glycoprotein inhibitor CP-100356 (CellTiter-Glo); format: cell-based; conditions: 2µM CP-100356, MOI 0.01, 72 hours
SARS-CoV = conditions: cited from earlier work
SARS-CoV 3CL protease = conditions: Figure 1; read-out: IC50 (SARS-CoV 3C); cited from earlier work
SARS-CoV-2^wk-521 = test system: SARS-CoV-2^wk-521; design: method as in PMID 32820005, PMID 33510133; conditions: VeroE6 cells; cited from earlier work
[3] = test system: SARS-CoV-2 strain JPN/TY/WK-521; design: method as in PMID 32820005, PMID 33510133; conditions: VeroE6 cells; read-out: antiviral EC50; cited from earlier work
SARS-CoV-2 3CLpro [4] = biological target: T1, SARS-CoV-2 3CLpro; assay: Mass analysis of enzyme-inhibitor complex (LC-MS); conditions: 2 μM protein, 20 μM compound, ten minutes
Protocol: The enzyme inhibitory activity (IC50 values) of synthetic active esters was assessed using a continuous fluorescence assay and the FRET-based substrate UIVT3 (HiLyteFluor488^TM-[…] -QXL520-NH2 (HPLC > 90%); Anaspec, Fremont, CA, USA) described by us previously. The antiviral activity (EC50 value) of compounds was evaluated using quantitative VeroE6 cell-based assay with RNA-qPCR as described by us recently. […] We presume that the mode of inhibition involves covalent bond formation with catalytic Cys145 as observed in our previous X-ray structural analysis of inhibitor-bound SARS-CoV-2 3CL protease as well as mass spectral analysis. The irreversible enzyme acylation of the NSAIDs-based inhibitor was examined by using […]. Authentic SARS-CoV-2 3CLpro was incubated with inhibitor 8a and then analyzed with untreated enzyme. As expected, we were able to see a signal for enzyme-bound compound 8a on the LC–MS spectrum that corresponds to acylation of 3CL protease with a mass shift of +212 Daltons.
Purified SARS-CoV-2 3CLpro was injected onto a Superdex™ 200 Increase 10/300 GL gel filtration column (GE Healthcare) equilibrated in 20 mM HEPES pH 7.5. […]
Positive ion spectra obtained were analyzed using Agilent MassHunter Qualitative Analysis Software B.06 and the deconvolution spectra were generated using Agilent MassHunter BioConfirm software B.06.

[5] = 10 min pre-incubation of enzyme with compound, read-out: SARS CoV-2 3CLpro IC50
[6] = Severe acute respiratory syndrome coronavirus 2, Vero C1008, 72 h, VeroE6 cells, RNA-qPCR, MOI 0.05, 72 h, read-out: SARS-CoV-2 EC50
[7] = values given in nM, read-out: SARS-CoV-2 3CLpro enzyme IC50
[8] = VeroE6 cells, RNA-qPCR, MOI 0.05, 72 h, read-out: SARS-CoV-2 EC50

| Structure (SMILES) | IC50 (SARS-CoV-2 3CLpro [1]; [5]) | EC50 [2, 6] | further results |
| --- | --- | --- | --- |
| COc1ccc2c(c1)c(CC(=O)Oc1cncc(Cl)c1)c(C)n2C(=O)c1ccc(Cl)cc1 [Compound 11a, 5-chloropyridin-3-yl 2-(1-(4-chlorobenzoyl)-5-methoxy-2-methyl-1H-indol-3-yl)acetate] | – | – | enzyme inhibitory activity (in words) (SARS-CoV-2 3CLpro [1]): significant reduction in enzyme activity; EC50 ([2]; Severe acute respiratory syndrome coronavirus 2, Vero C1008, 72 h, read-out: SARS-CoV-2 EC50, VeroE6 cells, RNA-qPCR, MOI 0.05, 72 h): 30 µM; antiviral activity in the presence of P-glycoprotein inhibitor CP-100356 (SARS-CoV-2): none of these compounds exhibited any significant antiviral activity |
| O=C(Oc1cncc(Cl)c1)c1c(O)cccc1F [C00017] | 108000 nM | > 100 µM | – |
| Cc1cccc(O)c1C(=O)Oc1cncc(Cl)c1 [C00015] | 4260 nM | > 100 µM | – |
| CC(=O)Nc1cc(C(=O)Oc2cncc(Cl)c2)ccc1F [Compound 19a, 5-chloropyridin-3-yl 3-acetamido-4-fluorobenzoate] | – | – | enzyme inhibitory activity (in words) (SARS-CoV-2 3CLpro [1]): low micromolar range |
| O=C(Oc1cncc(Cl)c1)c1ccccc1O [Compound 12a, 5-chloropyridin-3-yl 2-hydroxybenzoate] | 3470 nM | – | – |
| O=C(Oc1ccccc1C(=O)Oc1cncc(Cl)c1)c1ccccc1O [Compound 12b, 5-chloropyridin-3-yl 2-((2-hydroxybenzoyl)oxy)benzoate] | – | 64 µM | fold reduction in enzyme activity versus monoester 12a (SARS-CoV-2 3CLpro [1]): 5 fold |
| CC(C)Cc1ccc(C(C)C(=O)Oc2cncc(Cl)c2)cc1 (stereo not shown) [Compound 10a, 5-chloropyridin-3-yl 2-(4-isobutylphenyl)propanoate] | – | – | IC50 (SARS-CoV-2 3CLpro [1]; [7]): 810 nM |
| O=C(Oc1cncc(Cl)c1)c1ccccc1O [C00006] | – | > 100 µM | – |
| O=C(Oc1ccccc1C(=O)Oc1cncc(Cl)c1)c1ccccc1O [C00007] | 17100 nM | – | EC50 [2, 8]: 63.7 µM |
| Cc1ccc(O)c(C(=O)Oc2ccc(C)cc2C(=O)Oc2ccc(C)cc2C(=O)Oc2cncc(Cl)c2)c1 [C00014] | 3730 nM | > 100 µM | – |
| COc1ccc2c(c1)c(CC(=O)Oc1cncc(Cl)c1)c(C)n2C(=O)c1ccc(Cl)cc1 [C00005] | 5320 nM | – | EC50 [2, 8]: 30.2 µM |
| Cc1ccc(O)c(C(=O)Oc2cncc(Cl)c2)c1 [Compound 15a, 5-chloropyridin-3-yl 2-hydroxy-5-methylbenzoate] | – | 24 to 64 µM | antiviral activity in the presence of P-glycoprotein inhibitor CP-100356 (SARS-CoV-2): none of these compounds exhibited any significant antiviral activity |
| COc1ccc2cc([C@@H](C)C(=O)Oc3cncc(Cl)c3)ccc2c1 [C00003] | 160 nM | > 100 µM | – |
| Cc1cccc(C(=O)Oc2c(C)cccc2C(=O)Oc2cncc(Cl)c2)c1O [C00009] | 4900 nM | – | EC50 [2, 8]: 23.8 µM |
| Cc1cccc(O)c1C(=O)Oc1cccc(C)c1C(=O)Oc1cncc(Cl)c1 [C00016] | 15400 nM | > 100 µM | – |
| CC(=O)Nc1cc(C(=O)Oc2cncc(Cl)c2)ccc1F [C00019] | 1510 nM | > 100 µM | – |
| Cc1ccc(C(=O)Oc2cncc(Cl)c2)c(O)c1 [C00010] | 540 nM | > 100 µM | – |
| Cc1ccc(O)c(C(=O)Oc2ccc(C)cc2C(=O)Oc2cncc(Cl)c2)c1 [C00013] | 740 nM | – | EC50 [2, 8]: 48.3 µM |

| Structure (SMILES) | IC50 (SARS-CoV-2 3CLpro [1]; [5]) | EC50 [2, 6] | further results |
| --- | --- | --- | --- |
| Cc1cccc(C(=O)Oc2cncc(Cl)c2)c1O [C00008] | 650 nM | > 100 µM | – |
| O=C(Oc1cncc(Cl)c1)c1cccs1 [Compound 2] | – | – | antiviral activity (in words) (SARS-CoV): did not show antiviral activity; IC50 (SARS-CoV 3CL protease): 0.5 µM |
| Cc1ccc(C(=O)Oc2cncc(Cl)c2)c(O)c1 [Compound 14a, 5-chloropyridin-3-yl 2-hydroxy-4-methylbenzoate] | – | – | antiviral activity in the presence of P-glycoprotein inhibitor CP-100356 (SARS-CoV-2): none of these compounds exhibited any significant antiviral activity |
| O=C(Oc1cncc(Cl)c1)c1cccc2[nH]ccc12 [Compound 3] | – | – | activity in immunocytochemistry assay (in words) (SARS-CoV-2^wk-521): blocked the infectivity and cytopathic effect |
| Cc1ccc(C(=O)Oc2cc(C)ccc2C(=O)Oc2cncc(Cl)c2)c(O)c1 [C00011] | 1400 nM | > 100 µM | – |
| Cc1ccc(O)c(C(=O)Oc2cncc(Cl)c2)c1 [C00012] | 390 nM | – | EC50 [2, 8]: 46.3 µM |
| O=C(On1nnc2ccccc21)c1ccc2[nH]ccc2c1 [Compound 1] | – | – | antiviral activity (in words) (SARS-CoV): did not show antiviral activity; IC50 (SARS-CoV 3CL protease): 0.2 µM |
| CC(=O)Oc1ccccc1C(=O)Oc1cncc(Cl)c1 [C00001] | 360 nM | – | – |
| COc1ccc2cc([C@@H](C)C(=O)Oc3cncc(Cl)c3)ccc2c1 [Compound 9a, 5-chloropyridin-3-yl (R)-2-(6-methoxynaphthalen-2-yl)propanoate] | – | – | fold improvement of enzyme IC50 over the (S)-naproxen ester 8a (SARS-CoV-2 3CLpro [1]): over 4 fold; IC50 (SARS-CoV-2 3CLpro [1]; [7]): 160 nM; antiviral activity in the presence of P-glycoprotein inhibitor CP-100356 (SARS-CoV-2): none of these compounds exhibited any significant antiviral activity |
| O=C(Oc1cncc(Cl)c1)c1cccc2c1CCN2 [Compound 4] | – | – | activity in immunocytochemistry assay (in words) (SARS-CoV-2^wk-521): potent enzyme inhibitory and antiviral activity; EC50 [3]: 15 µM |
| CC(C)Cc1ccc(C(C)C(=O)Oc2cncc(Cl)c2)cc1 (stereo not shown) [C00004] | 810 nM | > 100 µM | – |
| CC(=O)Nc1cccc(C(=O)Oc2cncc(Cl)c2)c1 [C00018] | 1110 nM | > 100 µM | – |
| CC(=O)Nc1cccc(C(=O)Oc2cncc(Cl)c2)c1 [Compound 18a, 5-chloropyridin-3-yl 3-acetamidobenzoate] | – | – | enzyme inhibitory activity (in words) (SARS-CoV-2 3CLpro [1]): low micromolar range |
| COc1ccc2cc([C@H](C)C(=O)Oc3cncc(Cl)c3)ccc2c1 [Compound 8a, 5-chloropyridin-3-yl (S)-2-(6-methoxynaphthalen-2-yl)propanoate] | – | – | mass shift of 3CL protease on acylation by inhibitor (SARS-CoV-2 3CLpro [4]): +212 Daltons; IC50 (SARS-CoV-2 3CLpro [1]; [7]): 670 nM |
| CCC(CC)COC(=O)[C@H](C)N[P@](=O)(OC[C@H]1O[C@@](C#N)(c2ccc3c(N)ncnn23)[C@H](O)[C@@H]1O)Oc1ccccc1 [Compound 5, remdesivir, reference compound] | – | – | EC50 ([2]; Severe acute respiratory syndrome coronavirus 2, Vero C1008, read-out: antiviral EC50 (table footnote a, reference compounds), VeroE6 cells): 2.4 µM |
| Cc1cccc(C(=O)Oc2cncc(Cl)c2)c1O [Compound 13a, 5-chloropyridin-3-yl 2-hydroxy-3-methylbenzoate] | – | – | IC50 (SARS-CoV-2 3CLpro [1]; [7]): 650 nM |
| Cc1cccc(C(=O)Oc2c(C)cccc2C(=O)Oc2cncc(Cl)c2)c1O [Compound 13b, 5-chloropyridin-3-yl 2-((2-hydroxy-3-methylbenzoyl)oxy)-3-methylbenzoate] | 4900 nM | 24 µM | – |
| COc1ccc2cc([C@H](C)C(=O)Oc3cncc(Cl)c3)ccc2c1 [C00002] | 670 nM | > 100 µM | – |
